The molecules below were run on Human RSV-A (“Long” strain) (assay: RSV in vitro cytoprotection assay in HEp-2 cells (ATPlite readout)). Conditions: human respiratory syncytial virus, 96 h; HEp-2 cells, 4-day incubation, ATPlite; read-out: Human RSV-A (“Long” strain) EC50.
Format: cell-based
Excerpt: RSV is a single stranded negative sense RNA virus that causes respiratory tract infections which can be dangerous to infants, the elderly, and immunosuppressed individuals. Currently there is no vaccine, and therapeutic options are both costly and of limited effectiveness. These approved treatments are Ribavirin, and Palivizumab/Synagis (a monoclonal antibody). RSV has two genotypes, A and B, which differ primarily in the structure of the virus' surface “G” attachment protein. Our current primary screen focusses on RSV-A and uses an in vitro cytoprotection assay where compounds are added in 2-fold dilutions to cells which are then subjected to fully replicative viral particles. Cell viability is measured several days later along with separate measurements of compound cytotoxicity. This report focuses on the results of our most recent screening of compounds.
HEp-2 cells, (originally derived from tumors grown in irradiated-cortisonised weanling rats that had been injected with epidermoid carcinoma tissue from a person's larynx, but later found to be indistinguishable from HeLa cells by PCR DNA analysis), were used for the culturing of genotype A, “Long” strain RSV. Flasks were inoculated with RSV and viral stocks were collected once cytopathic effect (CPE) was greater than 90%. Viral stocks in 25% sucrose media were snap frozen using liquid nitrogen to increase viral stability. Viral stock titers were quantified by tissue culture infectious dose 50% (TCID50) using 8,000 cells per well and 3-fold viral dilutions across a 96-well plate, cultured for 4 days.
Following extensive parameter testing, the final assay is run as follows: HEp-2 cells are seeded into the inner 60 wells of a 96-well plate at 8,000 cells per well in a volume of 50 μL using Growth Media (DMEM without phenol red, 1% L-Glut, 1% Penn/Strep, 1% nonessential amino acids, 10% FBS). 2-Fold serial dilutions of control and test compounds are added to the wells in duplicate in a total volume of 25 μL. Viral stock is then added to the wells in a volume of 25 μL, bringing the total volume of each well to 100 μL. Each 96-well plate has a control column of 6 wells with cells and virus but no compound (negative control, max CPE), a column with cells but no compound or virus (positive control, minimum CPE), and a column with no cells or virus or compound (background plate/reagent control). The control wells with cells but no virus are given an additional 25 uL of growth media containing an equal quantity of sucrose as those wells receiving the viral stock in order to keep consistent in media and volume conditions. The outer wells of the plate are filled with 125 μL of growth media to act as a thermal and evaporative moat around the test wells. Following a 4-day incubation period, the plates are read using ATPlite (50 uL added per well), which quantifies the amount of ATP (a measure of cell health) present in each well. Assay plates are read using the Envision luminometer. In parallel, cytotoxicity is examined on an additional 96-well plate treated in an identical manner, but substituting the 25 μL of viral stock for 25 μL of growth media. […] EC50 ranges are as follows: A<0.01 μM; B 0.01-0.05 μM; C>0.05 μM.

| Structure (SMILES) | EC50 [nM] |
| --- | --- |
| Cc1cnc(N2CC3(CCOCC3)C2)c(C(=O)Nc2ccc(C(=O)N3CCc4cc(C(=O)Nc5c(C)cccc5F)oc4-c4ccncc43)cc2)c1 [Example 123] | > 50 |
| Cc1cnc(N2CC3(CCOCC3)C2)c(C(=O)Nc2ccc(C(=O)N3CCc4cc(C(=O)Nc5c(F)cccc5C(F)(F)F)oc4-c4ncc(F)cc43)cc2)c1 [Example 102] | 10 to 50 |
| Cc1ccc(C(=O)Nc2ccc(C(=O)N3CCc4c(sc(C(=O)Nc5ncccc5F)c4F)-c4ncccc43)cc2)c(N2CC3(CCOCC3)C2)n1 [Example 84] | < 10 |
| Cc1cnc(N2CC3(CCOCC3)C2)c(C(=O)Nc2ccc(C(=O)N3CCc4cc(C(=O)Nc5c(F)cc(F)cc5F)oc4-c4ccncc43)cc2)c1 [Example 122] | > 50 |
| Cc1cnc(N2CC3(CCOCC3)C2)c(C(=O)Nc2ccc(C(=O)N3CCc4cc(C(=O)Nc5c(F)cccc5Cl)oc4-c4ncc(F)cc43)cc2)c1 [Example 101] | < 10 |
| O=C(Nc1ccc(C(=O)N2CCc3cc(-c4nc5ccccc5[nH]4)sc3-c3cnccc32)cc1)c1cccnc1N1CC2(CCOCC2)C1 [Example 53] | > 50 |
| Cc1cnc(N2CC3(CCOCC3)C2)c(C(=O)Nc2ccc(C(=O)N3CCc4c(sc(-c5nc6cccc(F)c6[nH]5)c4F)-c4ncccc43)cc2)c1 [Example 78] | < 10 |
| Cc1cnc(N2CC3(CCOCC3)C2)c(C(=O)Nc2ccc(C(=O)N3CCc4cc(-c5nc6ccccc6[nH]5)sc4-c4ncc(F)cc43)cc2)c1 [Example 58] | < 10 |
| O=C(Nc1ccc(C(=O)N2CCc3cc(-c4nc5ccccc5[nH]4)sc3-c3ccncc32)cc1)c1cccnc1N1CC2(CCOCC2)C1 [Example 3] | > 50 |
| O=C(Nc1c(F)cc(F)cc1F)c1cc2c(s1)-c1ncc(F)cc1N(C(=O)c1ccc(NC(=O)c3cccnc3N3CC4(CCOCC4)C3)cc1)CC2 [Example 56] | < 10 |
| Cc1cnc(N2CC3(CCOCC3)C2)c(C(=O)Nc2ccc(C(=O)N3CCc4cc(-c5nc6ccccc6[nH]5)oc4-c4cccnc43)cc2)c1 [Example 114] | > 50 |
| Cc1ccc(C(=O)Nc2ccc(C(=O)N3CCc4cc(-c5nc6ccccc6[nH]5)sc4-c4ncccc43)cc2)c(N2CC3(CCOCC3)C2)n1 [Example 42] | < 10 |
| Cc1cnc(N2CC3(CCOCC3)C2)c(C(=O)Nc2ccc(C(=O)N3CCc4cc(C(=O)Nc5c(F)cccc5C(F)(F)F)oc4-c4ccncc43)cc2)c1 [Example 126] | > 50 |
| Cc1cnc(N2CC3(CCOCC3)C2)c(C(=O)Nc2ccc(C(=O)N3CCc4cc(C(=O)Nc5ncccc5F)sc4-c4ncccc43)cc2)c1 [Example 15] | < 10 |
| Cc1cnc(N2CC3(CCOCC3)C2)c(C(=O)Nc2ccc(C(=O)N3CCc4cc(NC(=O)c5c(F)cccc5F)sc4-c4ncccc43)cc2)c1 [Example 151] | < 10 |
| O=C(Nc1c(F)cccc1C(F)(F)F)c1cc2c(s1)-c1ncc(F)cc1N(C(=O)c1ccc(NC(=O)c3cccnc3N3CC4(CCOCC4)C3)cc1)CC2 [Example 62] | < 10 |
| Cc1ccc(C(=O)Nc2ccc(C(=O)N3CCc4c(sc(-c5nc6ccc(F)cc6[nH]5)c4F)-c4ncccc43)cc2)c(N2CC3(CCOCC3)C2)n1 [Example 88] | < 10 |
| Cc1cnc(N2CC3(CCOCC3)C2)c(C(=O)Nc2ccc(C(=O)N3CCc4cc(C(=O)Nc5ccccn5)sc4-c4ncccc43)cc2)c1 [Example 19] | < 10 |
| Cc1cnc(N2CC3(CCOCC3)C2)c(C(=O)Nc2ccc(C(=O)N3CCc4cc(C(=O)Nc5c(F)cccc5F)oc4-c4ccncc43)cc2)c1 [Example 121] | 10 to 50 |
| Cc1cnc(N2CCC3(CC2)COC3)c(C(=O)Nc2ccc(C(=O)N3CCc4cc(C(=O)Nc5c(F)cccc5F)sc4-c4ncccc43)cc2)c1 [Example 89] | < 10 |
| Cc1cnc(N2CC3(CCOCC3)C2)c(C(=O)Nc2ccc(C(=O)N3CCc4cc(C(=O)Nc5ncccc5C)sc4-c4ncccc43)cc2)c1 [Example 22] | < 10 |
| Cc1ccc(C(=O)Nc2ccc(C(=O)N3CCc4cc(-c5nc6cccc(Cl)c6[nH]5)sc4-c4ncccc43)cc2)c(N2CC3(CCOCC3)C2)n1 [Example 43] | 10 to 50 |
| Cc1cnc(N2CC3(CCOCC3)C2)c(C(=O)Nc2ccc(C(=O)N3CCc4cc(C(=O)Nc5ncco5)sc4-c4ncccc43)cc2)c1 [Example 30] | 10 to 50 |
| Cc1cnc(N2CC3COCC3C2)c(C(=O)Nc2ccc(C(=O)N3CCc4cc(C(=O)Nc5c(F)cccc5F)sc4-c4ncc(F)cc43)cc2)c1 (stereo not shown) [Example 69] | 10 to 50 |
| O=C(Nc1c(F)cc(F)cc1Cl)c1cc2c(s1)-c1ncc(F)cc1N(C(=O)c1ccc(NC(=O)c3cccnc3N3CC4(CCOCC4)C3)cc1)CC2 [Example 59] | < 10 |
| Cc1cnc(N2CC3(CCOCC3)C2)c(C(=O)Nc2ccc(C(=O)N3CCc4cc(C(=O)Nc5c(F)cccc5F)oc4-c4ncc(F)cc43)cc2)c1 [Example 99] | < 10 |
| Cc1cnc(N2CC3(CCOCC3)C2)c(C(=O)Nc2ccc(C(=O)N3CCc4c(sc(C(=O)Nc5c(C)cccc5C#N)c4F)-c4ncccc43)cc2)c1 [Example 75] | < 10 |
| Cc1cnc(N2CC3(CCOCC3)C2)c(C(=O)Nc2ccc(C(=O)N3CCc4cc(C(=O)Nc5ncc(C)s5)sc4-c4ncccc43)cc2)c1 [Example 16] | < 10 |
| Cc1cnc(N2CC3(CCOCC3)C2)c(C(=O)Nc2ccc(C(=O)N3CCc4cc(C(=O)Nc5c(Cl)cccc5Cl)oc4-c4ncc(F)cc43)cc2)c1 [Example 100] | 10 to 50 |
| Cc1cnc(N2CC3(CCOCC3)C2)c(C(=O)Nc2ccc(C(=O)N3CCc4cc(C(=O)Nc5c(C)cccc5F)oc4-c4cccnc43)cc2)c1 [Example 112] | > 50 |

Now from value to molecule:

| EC50 [nM] | Structure (SMILES) |
| --- | --- |
| 10 to 50 | O=C(Nc1c(F)cccc1F)c1cc2c(s1)-c1cnccc1N(C(=O)c1ccc(NC(=O)c3cccnc3N3CC4(CCOCC4)C3)cc1)CC2 [Example 51] |
| < 10 | O=C(Nc1c(F)cccc1F)c1cc2c(s1)-c1ncc(F)cc1N(C(=O)c1ccc(NC(=O)c3cccnc3N3CC4(CCOCC4)C3)cc1)CC2 [Example 55] |
| < 10 | Cc1ccc(C(=O)Nc2ccc(C(=O)N3CCc4cc(C(=O)Nc5c(C)cccc5F)sc4-c4ncccc43)cc2)c(N2CC3(CCOCC3)C2)n1 [Example 41] |
| 10 to 50 | O=C(Nc1c(F)cccc1Cl)c1cc2c(s1)-c1ccncc1N(C(=O)c1ccc(NC(=O)c3cccnc3N3CC4(CCOCC4)C3)cc1)CC2 [Example 2] |
| 10 to 50 | Cc1cnc(N2CC3(CCOCC3)C2)c(C(=O)Nc2ccc(C(=O)N3CCc4cc(C(=O)Nc5ncccc5F)sc4-c4nc(C)ccc43)cc2)c1 [Example 140] |
| > 50 | Cc1ccc2c(n1)-c1sc(C(=O)Nc3c(C)cccc3F)cc1CCN2C(=O)c1ccc(NC(=O)c2ccc(C)nc2N2CC3(CCOCC3)C2)cc1 [Example 145] |
| < 10 | Cc1cnc(N2CC3(CCOCC3)C2)c(C(=O)Nc2ccc(C(=O)N3CCc4cc(C(=O)Nc5cccc(C)n5)sc4-c4ncccc43)cc2)c1 [Example 23] |
| < 10 | Cc1cnc(N2CC3(CCOCC3)C2)c(C(=O)Nc2ccc(C(=O)N3CCc4cc(C(=O)Nc5c(C)cccc5F)sc4-c4ncccc43)cc2)c1 [Example 11] |
| > 50 | Cc1cccc(F)c1NC(=O)c1cc2c(s1)-c1cccnc1N(C(=O)c1ccc(NC(=O)c3cccnc3N3CC4(CCOCC4)C3)cc1)CC2 [Example 50] |
| < 10 | Cc1cnc(N2CC3(CCOCC3)C2)c(C(=O)Nc2ccc(C(=O)N3CCc4cc(C(=O)Nc5c(F)cccc5Cl)sc4-c4ncc(C)cc43)cc2)c1 [Example 136] |
| < 10 | Cc1cnc(N2CC3(CCOCC3)C2)c(C(=O)Nc2ccc(C(=O)N3CCc4cc(C(=O)Nc5c(C)cccc5C)sc4-c4ncccc43)cc2)c1 [Example 7] |
| 10 to 50 | Cc1ccc2c(n1)-c1sc(C(=O)Nc3c(F)cccc3F)cc1CCN2C(=O)c1ccc(NC(=O)c2ccc(C)nc2N2CC3(CCOCC3)C2)cc1 [Example 144] |
| < 10 | Cc1ccc(C(=O)Nc2ccc(C(=O)N3CCc4cc(NC(=O)c5c(F)cccc5F)sc4-c4ncccc43)cc2)c(N2CC3(CCOCC3)C2)n1 [Example 157] |
| < 10 | O=C(Nc1c(F)cccc1F)c1cc2c(s1)-c1ncccc1N(C(=O)c1ccc(NC(=O)c3cccnc3N3CC4(CCOCC4)C3)cc1)CC2 [Example 4] |
| > 50 | Cc1cnc(N2CC3(CCOCC3)C2)c(C(=O)Nc2ccc(C(=O)N3CCc4cc(C(=O)Nc5c(F)cccc5C(F)(F)F)sc4-c4ncc(F)cc43)cc2)c1 [Example 67] |

Same assay, conditions: human respiratory syncytial virus, HEp-2

| Structure (SMILES) | EC50 [nM] |
| --- | --- |
| O=C(Nc1ccccc1F)N[C@H]1N=C(c2ccccc2)c2ccccc2NC1=O [RSV-604, reference compound] | ~2400 |
